Tests used:
[1] = test system: CSF-1-induced bone marrow-derived macrophages (BMDM); assay: CSF-1-induced murine-derived macrophage (BMDM) survival (CCK-8); format: cell-based, BALB/c mice; settings: Mus musculus, 168 h, read-out: IC50 inhibition of cell survival, BMDM (CSF-1)
Method: BALB/c mice (female, 6 weeks old, healthy) were sacrificed. Bone marrow cells were taken from their femurs and tibia, and seeded into a 96-well culture plate at appropriate densities (90 µL per well) after erythrobiasis treatment. 100 ng/mL of CSF-1 factor was added to each well to induce macrophages (Bone marrow-derived macrophages, BMDM), and compounds at various concentrations were added and the plate was allowed for incubation for 7 days. A solvent control group (negative control) was set. After 7 day-exposure of the cells to the compounds, 10 µL of CCK-8 reagent was added to each well. The culture plate was placed in an incubator at 37° C. for 2-4 h, and then was read with a full-wavelength microplate reader setting at the wavelength of 450 nm.

[2] = test system: IL4/IL13-polarized murine BMDMs; assay: M2-biased polarization phenotype of BMDMs, flow cytometry of surface markers; format: cell-based, BALB/c mice; settings: mouse-derived BMDM, 48 h
Method: BALB/c mice (female, 6 weeks old, healthy) were sacrificed. Bone marrow cells were taken from their femurs and tibia, and seeded into a 6-well culture plate at appropriate densities ([…], per well) after erythrobiasis treatment. 100 ng/mL of CSF-1 factor was added to each well to induce macrophages (Bone marrow-derived macrophages, BMDM). After 7 days of induction, the cell culture medium was changed. CSF-1 factor was added at the same concentration as above, and M2 polarization of macrophages was induced with 10 ng/mL of IL4 and 10 ng/mL of IL13. While inducing polarization, compounds at various concentrations were added into test wells and negative control wells. After 48 h, the cells were harvested for flow cytometric analysis.
Cells in good condition were collected, and first washed twice with PBS. After washing, each sample was re-suspended with 100 µL of PBS and 0.5 µL of the fluorescent antibody prepared according to the manufacturer’s instructions to distinguish dead and live cells was added. The samples were stained in the dark at 4° C. for 30 min. After 30 min, the samples were washed twice with 1mL of the running buffer and the tubes were centrifuged at 300 g for 5 min at 4° C. The blocking antibody diluent was prepared by adding 2 µL of blocking antibody TruStain fcX™ (anti-mouse CD16/32) per 100 µL running buffer and was added on the basis of the 100 µL system of each sample. After blocking for 10 min, according to the manufacturer’s instructions, the fluorescent antibody corresponding to the surface protein was added to the samples, and the reactant was allowed for incubation at 4° C. for 30 min. At this step, a single staining control and an FMO control were set. Then, the samples were washed twice with 1 mL of the running buffer, and centrifuged at 300 g for 5 min at 4° C. each time.
If only surface proteins were to be examined, after centrifugation, the samples were re-suspended with 300 µL of PBS and immediately input into machines, or the samples were fixed with 4% paraformaldehyde for 15 min, and centrifuged at 500 g for 7 min. […]

[3] = test system: mouse colon cancer MC38 xenografts; assay: Pharmacodynamic experiment, growth of subcutaneous MC38 xenografts; format: in vivo; settings: for TV (mean ±SEM) D0: day 0 (baseline); for TGI D7 / TV (mean ±SEM) D7: day 7; for TGI D14 / TV (mean ±SEM) D14: day 14; for TGI D20 / TV (mean ±SEM) D20: day 20; for TGI D24 / TV (mean ±SEM) D24: day 24
Method: MC38 cells in good condition were re-suspended to 25 million cells/mL. 200 µL of cell suspension was inoculated subcutaneously in the right armpit of each mouse. When the tumor cells formed subcutaneous xenograft in the mice and grew to an average volume of approximately 100 mm^3, the mice were randomly assigned to the dosing group and the control group. The test compounds were prepared at the desired concentrations and corresponding equal amount of solvent was used as a solvent control. The drugs were administrated orally, and administrated once per day for 24 consecutive days.
During the dosing period, the xenograft volumes of the mice and the weights of the mice were measured every 2-4 days. The experiment was terminated 24 days after dosing.
The tumor volume (TV) was calculated as TV = ½×a×b^2, where “a” and “b” are the length and width of an xenograft, respectively.
Statistical tests were performed using the t test, with p≤0.05 representing a significant difference.

## CNC(=O)c1cccc2cc(Oc3ccnc(NC(=O)c4ccc(N5C[C@@H](C)N[C@@H](C)C5)cc4)c3)ccc12 [Compound I]
[1]
  IC50: 10.2 ± 0.8 nM
[2]; 25, 50 and 100 nM
  expression level of surface marker CD206 (M2-type marker): significantly inhibit
[2]
  expression level of surface marker CD86 (M1-type marker): significantly enhance
  expression level of surface marker MHC-II (M1-type marker): significantly enhance
[3]; 2.5 mg/kg oral once per day
  TV (mean ±SEM) D0: 79±13 mm3
  TGI D7: 63.3%
  TV (mean ±SEM) D7: 119±17 mm3
  TGI D14: 63.0%
  TV (mean ±SEM) D14: 232±39 mm3
  TGI D20: 74.6%
  TV (mean ±SEM) D20: 281±59 mm3
  TGI D24: 75.3%
  TV (mean ±SEM) D24: 348±80 mm3
[3]; 10 mg/kg oral once per day
  TV (mean ±SEM) D0: 79±12 mm3
  TGI D7: 100.9%
  TV (mean ±SEM) D7: 78±15 mm3
  TGI D14: 90.1%
  TV (mean ±SEM) D14: 120±42 mm3
  TGI D20: 95.2%
  TV (mean ±SEM) D20: 117±46 mm3
  TGI D24: 93.4%
  TV (mean ±SEM) D24: 150±64 mm3
[3]; oral once per day for 24 days
  growth of murine colon cancer MC38 cell xenografts: significantly inhibited
